Test results taken from patent US11957684B2, “Treatment of heavy menstrual bleeding associated with uterine fibroids” (Sumitomo Pharma Switzerland GmbH, priority 2016, dated 2024).

Key:
FIG. 75 = experiment: FIG. 75
Source text: Table printed on a drawing sheet, FIG. 75
First reader's note: Each body row is one statistic (N, Mean, SD, quartiles, range) of the plasma concentration for one dose group, so N rows are subject counts and SD rows are errors; the dose group name is printed only on the N row and is repeated here for its group.

FIG. 167 = experiment: FIG. 167
Source text: Table printed on a drawing sheet, FIG. 167
First reader's note: Units stand in the cells; each column is one drug and the rows are its properties.

[1] = literature (Struthers et al. 2009); cited from earlier work

Source text for FIG. 73: First reader's note: Each row is one summary statistic (N, mean, SD, quartiles, range) of the plasma concentration for one dose group; the N rows are subject counts, not ng/mL, and the columns are visit/sampling times.

SMILES	Visit | Week 2: Predose (FIG. 75)	Visit | Week 4: Predose (FIG. 75)	Visit | Week 12 (FIG. 75)	Visit | Week 0: 0.5-[…] (FIG. 73)	Visit | Week 0: 2-5hr (FIG. 73)	Visit | Week 2: 2-5hr (FIG. 73)	Visit | Week 2: Predose (FIG. 73)	Visit | Week 4: 2-5hr (FIG. 73)	Visit | Week 4: Predose (FIG. 73)	Visit | Week 8: 0.5-[…] (FIG. 73)	Visit | Week 8: 2-5hr (FIG. 73)	Visit | Week 8: Predose (FIG. 73)	Visit | Week 12 (FIG. 73)	Visit | Week 16: Predose (FIG. 73)	Visit | Week 20: Predose (FIG. 73)	Visit | Week 24 (FIG. 73)	Visit | Week 8: Predose (FIG. 75)	Visit | Week 2: 0.5-[…] (FIG. 73)	Visit | Week 4: 0.5-[…] (FIG. 73)	Observed Half-life (FIG. 167)	further results
CONC(=O)Nc1ccc(-c2sc3c(c2CN(C)C)c(=O)n(-c2ccc(OC)nn2)c(=O)n3Cc2c(F)cccc2F)cc1 [Compound 1 10 mg]	0.0898 ng/mL	0.1880 ng/mL	0.8620 ng/mL	0.5290 ng/mL	0.5641 ng/mL	0.8025 ng/mL	0.3100 ng/mL	0.9672 ng/mL	0.2670 ng/mL	1.324 ng/mL	0.8301 ng/mL	0.3406 ng/mL	0.2783 ng/mL	0.3251 ng/mL	0.3138 ng/mL	0.2811 ng/mL	–	–	–	–	Visit | Week 2: 0.5-[…] (FIG. 75): 0.9860 ng/mL; Visit | Week 2: 2-5hr (FIG. 75): 0.8280 ng/mL; Visit | Week 4: 0.5-[…] (FIG. 75): 0.9140 ng/mL; Visit | Week 4: 2-5hr (FIG. 75): 0.3720 ng/mL; Visit | Week 8: 0.5-[…] (FIG. 75): 2.192 ng/mL; Visit | Week 8: 2-5hr (FIG. 75): 1.320 ng/mL; Visit | Week 16: Predose (FIG. 75): 0.1500 ng/mL
CONC(=O)Nc1ccc(-c2sc3c(c2CN(C)C)c(=O)n(-c2ccc(OC)nn2)c(=O)n3Cc2c(F)cccc2F)cc1 [Compound 1 20 mg]	0.8990 ng/mL	0.3880 ng/mL	0.8320 ng/mL	2.784 ng/mL	2.154 ng/mL	2.981 ng/mL	0.8002 ng/mL	3.567 ng/mL	0.6640 ng/mL	3.437 ng/mL	2.643 ng/mL	0.8032 ng/mL	0.6904 ng/mL	0.6280 ng/mL	0.7132 ng/mL	0.6712 ng/mL	0.3380 ng/mL	2.912 ng/mL	3.515 ng/mL	–	Visit | Week 0: 0.5-[…] (FIG. 75): 7.570 ng/mL; Visit | Week 24 (FIG. 75): 0.7470 ng/mL
CONC(=O)Nc1ccc(-c2sc3c(c2CN(C)C)c(=O)n(-c2ccc(OC)nn2)c(=O)n3Cc2c(F)cccc2F)cc1 [Compound 1 40 mg]	–	–	1.520 ng/mL	7.424 ng/mL	7.680 ng/mL	7.550 ng/mL	2.383 ng/mL	8.479 ng/mL	2.315 ng/mL	10.29 ng/mL	11.20 ng/mL	2.233 ng/mL	1.987 ng/mL	1.995 ng/mL	2.240 ng/mL	1.908 ng/mL	3.580 ng/mL	9.210 ng/mL	11.61 ng/mL	–	–
COc1cccc(-c2c(C)n(Cc3c(F)cccc3C(F)(F)F)c(=O)n(C[C@H](NCCCC(=O)O)c3ccccc3)c2=O)c1F [Elagolix^2]	–	–	–	–	–	–	–	–	–	–	–	–	–	–	–	–	–	–	–	2 to 6 h	–
CONC(=O)Nc1ccc(-c2sc3c(c2CN(C)C)c(=O)n(-c2ccc(OC)nn2)c(=O)n3Cc2c(F)cccc2F)cc1 [Relugolix^1]	–	–	–	–	–	–	–	–	–	–	–	–	–	–	–	–	–	–	–	37 to 42 h	–
COc1cccc(-c2c(C)n(Cc3c(F)cccc3C(F)(F)F)c(=O)n(C[C@H](NCCCC(=O)O)c3ccccc3)c2=O)c1F [elagolix]	–	–	–	–	–	–	–	–	–	–	–	–	–	–	–	–	–	–	–	–	half-life [1]: 2.4 to 6.3 h
